Molecular target: human TLR7 (Homo sapiens (Human), UniProt Q9NYK1)
Experiment: Test for evaluating the inhibition of the activation of human TLR7 (SEAP reporter, TLR7/NF-κB/SEAPorter HEK293 cell)
Format: cell-based
Conditions: R-848 200 nmol/L; for inhibitory effect against TLR7 in the test for evaluating inhibition of the activation of TLR7: SEAP activity, result in words; for IC50: SEAP reporter
How it was run: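 HEK293 cells stably expressing full-length human TLR7 and an NF-κB-driven SEAP reporter. They were grown in DMEM with 10% FBS and blasticidin, and seeded at 5×10^4 cells/well overnight at 37° C, 5% CO2. Inhibition of TLR7 activation was read as SEAP output.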

Chain of human TLR7 (Q9NYK1 27-1049): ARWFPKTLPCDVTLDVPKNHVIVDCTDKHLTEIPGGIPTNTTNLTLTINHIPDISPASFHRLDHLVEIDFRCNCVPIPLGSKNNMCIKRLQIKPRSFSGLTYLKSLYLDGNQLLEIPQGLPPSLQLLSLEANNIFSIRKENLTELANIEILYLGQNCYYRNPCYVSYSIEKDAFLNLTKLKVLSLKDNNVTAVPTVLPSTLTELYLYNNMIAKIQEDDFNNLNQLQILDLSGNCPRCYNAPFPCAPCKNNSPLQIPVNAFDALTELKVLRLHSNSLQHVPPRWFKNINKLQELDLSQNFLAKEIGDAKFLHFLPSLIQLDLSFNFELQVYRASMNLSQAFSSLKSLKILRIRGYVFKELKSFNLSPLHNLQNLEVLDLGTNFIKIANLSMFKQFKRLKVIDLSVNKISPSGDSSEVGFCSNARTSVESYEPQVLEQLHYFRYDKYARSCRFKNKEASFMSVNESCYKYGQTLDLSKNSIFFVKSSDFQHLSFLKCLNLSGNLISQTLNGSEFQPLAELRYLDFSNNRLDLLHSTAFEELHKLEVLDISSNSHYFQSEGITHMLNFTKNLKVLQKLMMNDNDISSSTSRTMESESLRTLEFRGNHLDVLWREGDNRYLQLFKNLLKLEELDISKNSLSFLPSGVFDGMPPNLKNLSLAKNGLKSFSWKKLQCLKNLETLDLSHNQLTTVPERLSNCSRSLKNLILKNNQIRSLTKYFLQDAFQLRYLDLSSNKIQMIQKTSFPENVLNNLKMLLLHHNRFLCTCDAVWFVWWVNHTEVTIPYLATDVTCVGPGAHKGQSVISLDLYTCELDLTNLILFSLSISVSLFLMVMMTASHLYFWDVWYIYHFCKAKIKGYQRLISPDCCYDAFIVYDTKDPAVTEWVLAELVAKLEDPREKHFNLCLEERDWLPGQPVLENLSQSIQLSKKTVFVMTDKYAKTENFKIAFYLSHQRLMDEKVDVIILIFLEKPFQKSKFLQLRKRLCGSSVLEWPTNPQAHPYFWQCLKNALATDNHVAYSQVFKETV

SMILES	inhibitory effect against TLR7 in the test for evaluating inhibition of the activation of TLR7	IC50
CCOc1nc(C)c2nc(-c3cncc(F)c3)n(Cc3cnc(C4CN5CCC4CC5)c(F)c3)c2n1 (centres unmarked) [Example 383]	potent inhibitory effect against TLR7	83 nM
CCOc1nc(C)c2nc(-c3cncc(F)c3)n(Cc3ccc(C4CN5CCC4CC5)cc3C#N)c2n1 (centres unmarked) [Example 384]		270 nM
COc1nc(C)c2nc(-c3cncc(F)c3)n(Cc3ccc(C4CCN(C(=O)OC(C)(C)C)CC4)cc3F)c2n1 [Example 385]		94 nM
COc1nc(C)c2nc(-c3cncc(F)c3)n(Cc3cccc(C4CN5CCC4CC5)c3)c2n1 (centres unmarked) [Example 386, 9-[3-(1-azabicyclo[2.2.2]oct-3-yl)benzyl]-8-(5-fluoropyridin-3-yl)-2-methoxy-6-methyl-9H-purine]	potent inhibitory effect against TLR7	13 nM
Cc1nc(O)nc2c1nc(-c1cncc(F)c1)n2Cc1ccc(C2CN3CCC2CC3)cc1 (centres unmarked) [Example 388, 9-[4-(1-Azabicyclo[2.2.2]oct-3-yl)benzyl]-8-(5-fluoropyridin-3-yl)-6-methyl-9H-purin-2-ol]		1350 nM
Cc1nc(O)nc2c1nc(-c1cncc(F)c1)n2Cc1ccc(C2CN3CCC2CC3)cc1F (centres unmarked) [Example 389]		2040 nM
COc1nc(C)c2nc(-c3cncc(F)c3)n(Cc3ccc(C4CN5CCC4CC5)cc3F)c2n1 (centres unmarked) [Example 392, 9-[4-(1-azabicyclo[2.2.2]oct-3-yl)-2-fluorobenzyl]-8-(5-fluoropyridin-3-yl)-2-methoxy-6-methyl-9H-purine]	potent inhibitory effect against TLR7	
COc1nc(C)c2nc(-c3cncc(F)c3)n(Cc3ccc(C4CN5CCC4CC5)cc3F)c2n1 (centres unmarked) [Example 393, 9-[4-(1-azabicyclo[2.2.2]oct-3-yl)-2-fluorobenzyl]-8-(5-fluoropyridin-3-yl)-2-methoxy-6-methyl-9H-purine]	potent inhibitory effect against TLR7	
COc1nc(C)c2nc(-c3cncc(F)c3)n(Cc3ccc(O)cc3F)c2n1 [Example 404, 3-Fluoro-4-{[8-(5-fluoropyridin-3-yl)-2-methoxy-6-methyl-9H-purin-9-yl]methyl}phenol]		846 nM
COc1ccc(Cn2c(-c3cncc(F)c3)nc3c(C)nc(OC)nc32)c(F)c1 [Example 405, 9-(2-fluoro-4-methoxybenzyl)-8-(5-fluoropyridin-3-yl)-2-methoxy-6-methyl-9H-purine]		3410 nM
COc1nc(C)c2nc(-c3cncc(F)c3)n(Cc3ccc(OC4CCN(C)CC4)cc3F)c2n1 [Example 411, 9-{2-fluoro-4-[(1-methylpiperidin-4-yl)oxy]benzyl}-8-(5-fluoropyridin-3-yl)-2-methoxy-6-methyl-9H-purine]	potent inhibitory effect against TLR7	26 nM
COc1nc(C)c2nc(-c3cncc(F)c3)n(Cc3ccc(O[C@@H]4CN5CCC4CC5)cc3F)c2n1 [Example 412, 9-{4-[(3S)-1-azabicyclo[2.2.2]oct-3-yloxy]-2-fluorobenzyl}-8-(5-fluoropyridin-3-yl)-2-methoxy-6-methyl-9H-purine]	potent inhibitory effect against TLR7	5 nM
COc1nc(C)c2nc(-c3cncc(F)c3)n(Cc3ccc(O[C@H]4CN5CCC4CC5)cc3F)c2n1 [Example 413, 9-{4-[(3R)-1-azabicyclo[2.2.2]oct-3-yloxy]-2-fluorobenzyl}-8-(5-fluoropyridin-3-yl)-2-methoxy-6-methyl-9H-purine]	potent inhibitory effect against TLR7	9 nM
COc1nc(C)c2nc(-c3cncc(F)c3)n(Cc3ccc(O[C@H]4CCN(C)C4)cc3F)c2n1 [Example 414, 9-(2-fluoro-4-{[(3S)-1-methylpyrrolidin-3-yl]oxy}benzyl)-8-(5-fluoropyridin-3-yl)-2-methoxy-6-methyl-9H-purine]	potent inhibitory effect against TLR7	16 nM
COc1nc(C)c2nc(-c3cncc(F)c3)n(Cc3ccc(O[C@@H]4CCN(C)C4)cc3F)c2n1 [Example 415, 9-(2-fluoro-4-{[(3R)-1-methylpyrrolidin-3-yl]oxy}benzyl)-8-(5-fluoropyridin-3-yl)-2-methoxy-6-methyl-9H-purine]	potent inhibitory effect against TLR7	16 nM
COc1nc(C)c2nc(-c3cncc(F)c3)n(Cc3ccc(OC4CN(C)C4)cc3F)c2n1 [Example 416, 9-{2-fluoro-4-[(1-methylazetidin-3-yl)oxy]benzyl}-8-(5-fluoropyridin-3-yl)-2-methoxy-6-methyl-9H-purine]	potent inhibitory effect against TLR7	50 nM
COc1nc(C)c2nc(-c3cncc(F)c3)n(Cc3ccc(O[C@@H]4C[C@H]5CC[C@@H](C4)N5C)cc3F)c2n1 [Example 418, 9-(2-fluoro-4-{[(3-exo)-8-methyl-8-azabicyclo[3.2.1]oct-3-yl]oxy}benzyl)-8-(5-fluoropyridin-3-yl)-2-methoxy-6-methyl-9H-purine]	potent inhibitory effect against TLR7	19 nM
COc1nc(C)c2nc(-c3cncc(F)c3)n(Cc3ccc(OCC4CN(C(=O)OC(C)(C)C)C4)cc3F)c2n1 [Example 419]		712 nM
COc1nc(C)c2nc(-c3cncc(F)c3)n(Cc3ccc(OCCN(C)C)cc3F)c2n1 [Example 420]		139 nM
COc1nc(C)c2nc(-c3cncc(F)c3)n(Cc3ccc(OCCCN(C)C)cc3F)c2n1 [Example 421]	potent inhibitory effect against TLR7	73 nM

SMILES	inhibitory effect against TLR7 in the test for evaluating inhibition of the activation of TLR7	IC50
CCOc1nc(C)c2nc(-c3cncc(F)c3)n(Cc3cnn(CC4CNCCO4)c3)c2n1 (centres unmarked) [Example 424]		100 nM
CCOc1nc(C)c2nc(-c3cncc(F)c3)n(Cc3cnn(CC4CNCCO4)c3)c2n1 (centres unmarked) [Example 425]		93 nM
CCOc1nc(C)c2nc(-c3cncc(F)c3)n(Cc3cnn(CC4COCCN4)c3)c2n1 (centres unmarked) [Example 426]		200 nM
CCOc1nc(C)c2nc(-c3cncc(F)c3)n(Cc3cnn(CC4COCCN4)c3)c2n1 (centres unmarked) [Example 427]		28 nM
CCOc1nc(C)c2nc(-c3cncc(F)c3)n(Cc3cnn(CC4CCNCC4)c3)c2n1 [Example 428]		210 nM
CCOc1nc(C)c2nc(-c3cncc(F)c3)n(Cc3cnc(CC4CCNCC4)cc3OC)c2n1 [Example 430]		549 nM
COc1nc(C)c2nc(-c3cncc(F)c3)n(Cc3ccc(C4CCNCC4)cc3F)c2n1 [Example 431]	potent inhibitory effect against TLR7	8 nM
COc1nc(C)c2nc(-c3cncc(F)c3)n(Cc3ccc(CC4CCNCC4)cc3F)c2n1 [Example 432]	potent inhibitory effect against TLR7	62 nM
COc1nc(C)c2nc(-c3cncc(F)c3)n(Cc3ccc(O[C@H]4C[C@H]5CC[C@@H](C4)N5)cc3F)c2n1 [Example 433]	potent inhibitory effect against TLR7	9 nM
COc1nc(C)c2nc(-c3cncc(F)c3)n(Cc3ccc(OCC4CNC4)cc3F)c2n1 [Example 434]		90 nM
COc1nc(C)c2nc(-c3cncc(F)c3)n(Cc3ccc(C4CCNC4)cc3F)c2n1 (centres unmarked) [Example 435]		18 nM
COc1nc(C)c2nc(-c3cncc(C#N)c3)n(Cc3ccc(O[C@H]4C[C@H]5CC[C@@H](C4)N5)cc3F)c2n1 [Example 436]	potent inhibitory effect against TLR7	37 nM
COc1nc(C)c2nc(-c3cccnc3)n(Cc3ccc(O[C@H]4C[C@H]5CC[C@@H](C4)N5)cc3F)c2n1 [Example 437]	potent inhibitory effect against TLR7	16 nM
COc1nc(C)c2nc(-c3ccc(C(N)=O)nc3)n(Cc3ccc(OC4CN5CCC4CC5)cc3F)c2n1 (centres unmarked) [Example 439]		134 nM
COc1nc(C)c2nc(-c3ccc4ncccc4c3)n(Cc3ccc(OC4CN5CCC4CC5)cc3F)c2n1 (centres unmarked) [Example 440]		84 nM
COc1nc(C)c2nc(-c3cccnn3)n(Cc3ccc(OC4CN5CCC4CC5)cc3F)c2n1 (centres unmarked) [Example 441]		176 nM
COc1nc(C)c2nc(-c3cncc(F)c3)n(Cc3cc(C4CN5CCC4CC5)ccc3F)c2n1 (centres unmarked) [Example 443, 9-[5-(1-azabicyclo[2.2.2]oct-3-yl)-2-fluorobenzyl]-8-(5-fluoropyridin-3-yl)-2-methoxy-6-methyl-9H-purine]	potent inhibitory effect against TLR7	17 nM
COc1nc(C)c2nc(-c3cncnc3)n(Cc3ccc([C@@H]4CN5CCC4CC5)cc3F)c2n1 [Example 444, 9-{4-[(3R)-1-Azabicyclo[2.2.2]oct-3-yl]-2-fluorobenzyl}-2-methoxy-6-methyl-8-(pyrimidin-5-yl)-9H-purine]		98 nM
COc1nc(C)c2nc(-c3cncnc3)n(Cc3ccc([C@H]4CN5CCC4CC5)cc3F)c2n1 [Example 445, 9-{4-[(3S)-1-azabicyclo[2.2.2]oct-3-yl]-2-fluorobenzyl}-2-methoxy-6-methyl-8-(pyrimidin-5-yl)-9H-purine]	potent inhibitory effect against TLR7	21 nM

Reference: patent US10703755B2, “Substituted purine derivative” (SUMITOMO DAINIPPON PHARMA CO., LTD., priority 2016, dated 2020)
